Laboratory results published in patent publication US10947271B2, “Antibacterial agents” (THE UNIVERSITY OF QUEENSLAND, priority 2014, dated 2021).

Legend:
Type in all cases: cell-based
Settings in all cases: 24 h incubation, visual reading
[1] = test system: Staphylococcus aureus MRSA ATCC 43300; test: MIC assay, S. aureus MRSA ATCC 43300
Protocol: (§1) Antimicrobial activity of compounds was tested against a number of bacterial strains, including Staphylococcus aureus (MRSA ATCC 43300, GISA NRS17, VISA NRS1, MRSA clinical isolate, daptomycin resistant clinical isolate), Streptococcus pneumoniae (MDR ATCC 700677), Enterococcus faecalis (VanA clinical isolate) and Enterococcus faecium (MDR Van A ATCC 51559).
(§2) All compounds were prepared to 160 μg/ml solution in water from a stock solution of 1 mM concentration.
(§3) The compounds, along with standard antibiotics were serially diluted twofold across the wells of 96-well non-binding surface plates (NBS, Corning). Standards ranged from 64 μg/ml to 0.03 μg/ml and compounds from 8 μg/ml to 0.003 μg/ml with final volumes of 50 μL per well. Gram positive bacteria were cultured in Muller Hinton broth (MHB) (Bacto laboratories, Cat. no. 211443) at 37° C. overnight. A sample of each culture was then diluted 40-fold in fresh MHB broth and incubated at 37° C. for 2-3 hrs. The resultant mid-log phase cultures were diluted to the final concentration of 5×10e5 CFU/mL, then 50 μL was added to each well of the compound-containing 96-well plates. All the plates were covered and incubated at 37° C. for 24 h. MICs were the lowest concentration showing no visible growth.
(§4) MICs were determined visually at 24 hr incubation and the MIC was defined as the lowest concentration with which no growth was visible after incubation. Both MIC and MBC were determined by visual inspection only.

[2] = test system: Streptococcus pneumoniae MDR ATCC 700677; test: MIC assay, S. pneumoniae MDR ATCC 700677
Protocol: as §1, §2, §3, §4

[3] = test system: Enterococcus faecium MDR Van A ATCC 51559; test: MIC assay, E. faecium MDR Van A ATCC 51559
Protocol: as §1, §2, §3, §4

Minimum Inhibitory Concentration (MIC) Staph. aureus ATCC43300 [1]	Minimum Inhibitory Concentration (MIC) S. pneumoniae ATCC 700677 [2]	Minimum Inhibitory Concentration (MIC) E. faecium ATCC51559 [3]	Compound
xxxx (xxxx = 0.01-<0.1)	xxxxx (xxxxx = <0.01)	xxx (xxx = 0.1-<1)	CCCCCCCCCCCCCCC(=O)NC(CCCCN)C(=O)NC(CCCCN)C(=O)NC(CCCCNC(=O)C1NC(=O)C2NC(=O)C(NC(=O)C3NC(=O)C(CC(N)=O)NC(=O)C(NC(=O)C(CC(C)C)NC)C(O)c4ccc(c(Cl)c4)Oc4cc3cc(c4OC3OC(CO)C(O)C(O)C3OC3CC(C)(N)C(O)C(C)O3)Oc3ccc(cc3Cl)C2O)c2ccc(O)c(c2)-c2c(O)cc(O)cc21)C(=O)NC (stereo not drawn) [MCC_000495]
xxxx (xxxx = 0.01-<0.1)	xxx (xxx = 0.1-<1)	x (x = >4)	CCCCCCC(CCCC)C(=O)NC(CCCCN)C(=O)NC(CCCCN)C(=O)NC(CCCCNC(=O)C1NC(=O)C2NC(=O)C(NC(=O)C3NC(=O)C(CC(N)=O)NC(=O)C(NC(=O)C(CC(C)C)NC)C(O)c4ccc(c(Cl)c4)Oc4cc3cc(c4OC3OC(CO)C(O)C(O)C3OC3CC(C)(N)C(O)C(C)O3)Oc3ccc(cc3Cl)C2O)c2ccc(O)c(c2)-c2c(O)cc(O)cc21)C(=O)NC (stereo not drawn) [MCC_000496]
xxx (xxx = 0.1-<1)	xxx (xxx = 0.1-<1)	xxx (xxx = 0.1-<1)	CCCCCCC(CCCC)C(=O)NCCCCC(NC(=O)C(CCCC)CCCCCC)C(=O)NC(CCCCN)C(=O)NC(CCCCNC(=O)C1NC(=O)C2NC(=O)C(NC(=O)C3NC(=O)C(CC(N)=O)NC(=O)C(NC(=O)C(CC(C)C)NC)C(O)c4ccc(c(Cl)c4)Oc4cc3cc(c4OC3OC(CO)C(O)C(O)C3OC3CC(C)(N)C(O)C(C)O3)Oc3ccc(cc3Cl)C2O)c2ccc(O)c(c2)-c2c(O)cc(O)cc21)C(=O)NC (stereo not drawn) [MCC_000497]
xx (xx = 1-4)	xx (xx = 1-4)	x (x = >4)	CCCCC=CCCCCCCCC(=O)NC(CCCCN)C(=O)NC(CCCCN)C(=O)NC(CCCCNC(=O)C1NC(=O)C2NC(=O)C(NC(=O)C3NC(=O)C(CC(N)=O)NC(=O)C(NC(=O)C(CC(C)C)NC)C(O)c4ccc(c(Cl)c4)Oc4cc3cc(c4OC3OC(CO)C(O)C(O)C3OC3CC(C)(N)C(O)C(C)O3)Oc3ccc(cc3Cl)C2O)c2ccc(O)c(c2)-c2c(O)cc(O)cc21)C(=O)NC (stereo not drawn) [MCC_000498]
xxxx (xxxx = 0.01-<0.1)	xxxx (xxxx = 0.01-<0.1)	xx (xx = 1-4)	CCCCCCc1ccc(C(=O)NC(CCCCN)C(=O)NC(CCCCN)C(=O)NC(CCCCNC(=O)C2NC(=O)C3NC(=O)C(NC(=O)C4NC(=O)C(CC(N)=O)NC(=O)C(NC(=O)C(CC(C)C)NC)C(O)c5ccc(c(Cl)c5)Oc5cc4cc(c5OC4OC(CO)C(O)C(O)C4OC4CC(C)(N)C(O)C(C)O4)Oc4ccc(cc4Cl)C3O)c3ccc(O)c(c3)-c3c(O)cc(O)cc32)C(=O)NC)cc1 (stereo not drawn) [MCC_000499]
xxxxx (xxxxx = <0.01)	xxxxx (xxxxx = <0.01)	xx (xx = 1-4)	CCCCCCCc1ccc(C(=O)NC(CCCCN)C(=O)NC(CCCCN)C(=O)NC(CCCCNC(=O)C2NC(=O)C3NC(=O)C(NC(=O)C4NC(=O)C(CC(N)=O)NC(=O)C(NC(=O)C(CC(C)C)NC)C(O)c5ccc(c(Cl)c5)Oc5cc4cc(c5OC4OC(CO)C(O)C(O)C4OC4CC(C)(N)C(O)C(C)O4)Oc4ccc(cc4Cl)C3O)c3ccc(O)c(c3)-c3c(O)cc(O)cc32)C(=O)NC)cc1 (stereo not drawn) [MCC_000500]

Further lines, the compound ahead of its results:

Compound	Minimum Inhibitory Concentration (MIC) Staph. aureus ATCC43300 [1]	Minimum Inhibitory Concentration (MIC) S. pneumoniae ATCC 700677 [2]	Minimum Inhibitory Concentration (MIC) E. faecium ATCC51559 [3]
CCCCCCCCCCCC(=O)NC(CCCCN)C(=O)NC(CCCCN)C(=O)NC(CCCCNC(=O)C1NC(=O)C2NC(=O)C(NC(=O)C3NC(=O)C(CC(N)=O)NC(=O)C(NC(=O)C(CC(C)C)NC)C(O)c4ccc(c(Cl)c4)Oc4cc3cc(c4OC3OC(CO)C(O)C(O)C3OC3CC(C)(N)C(O)C(C)O3)Oc3ccc(cc3Cl)C2O)c2ccc(O)c(c2)-c2c(O)cc(O)cc21)C(=O)NC (stereo not drawn) [MCC_000493]	xxxxx (xxxxx = <0.01)	xxxxx (xxxxx = <0.01)	xx (xx = 1-4)
CCCCCCCCCCCCC(=O)NC(CCCCN)C(=O)NC(CCCCN)C(=O)NC(CCCCNC(=O)C1NC(=O)C2NC(=O)C(NC(=O)C3NC(=O)C(CC(N)=O)NC(=O)C(NC(=O)C(CC(C)C)NC)C(O)c4ccc(c(Cl)c4)Oc4cc3cc(c4OC3OC(CO)C(O)C(O)C3OC3CC(C)(N)C(O)C(C)O3)Oc3ccc(cc3Cl)C2O)c2ccc(O)c(c2)-c2c(O)cc(O)cc21)C(=O)NC (stereo not drawn) [MCC_000494]	xxxxx (xxxxx = <0.01)	xxxxx (xxxxx = <0.01)	xx (xx = 1-4)
CCCCCOc1ccc(C(=O)NC(CCCCN)C(=O)NC(CCCCN)C(=O)NC(CCCCNC(=O)C2NC(=O)C3NC(=O)C(NC(=O)C4NC(=O)C(CC(N)=O)NC(=O)C(NC(=O)C(CC(C)C)NC)C(O)c5ccc(c(Cl)c5)Oc5cc4cc(c5OC4OC(CO)C(O)C(O)C4OC4CC(C)(N)C(O)C(C)O4)Oc4ccc(cc4Cl)C3O)c3ccc(O)c(c3)-c3c(O)cc(O)cc32)C(=O)NC)cc1 (stereo not drawn) [MCC_000501]	xxxx (xxxx = 0.01-<0.1)	xxxxx (xxxxx = <0.01)	x (x = >4)
CCCCCOc1ccc(C(=O)NCCCCC(NC(=O)c2ccc(OCCCCC)cc2)C(=O)NC(CCCCN)C(=O)NC(CCCCNC(=O)C2NC(=O)C3NC(=O)C(NC(=O)C4NC(=O)C(CC(N)=O)NC(=O)C(NC(=O)C(CC(C)C)NC)C(O)c5ccc(c(Cl)c5)Oc5cc4cc(c5OC4OC(CO)C(O)C(O)C4OC4CC(C)(N)C(O)C(C)O4)Oc4ccc(cc4Cl)C3O)c3ccc(O)c(c3)-c3c(O)cc(O)cc32)C(=O)NC)cc1 (stereo not drawn) [MCC_000502]	xxxxx (xxxxx = <0.01)	xxxxx (xxxxx = <0.01)	xxx (xxx = 0.1-<1)
CCCCCCCOc1ccc(C(=O)NC(CCCCN)C(=O)NC(CCCCN)C(=O)NC(CCCCNC(=O)C2NC(=O)C3NC(=O)C(NC(=O)C4NC(=O)C(CC(N)=O)NC(=O)C(NC(=O)C(CC(C)C)NC)C(O)c5ccc(c(Cl)c5)Oc5cc4cc(c5OC4OC(CO)C(O)C(O)C4OC4CC(C)(N)C(O)C(C)O4)Oc4ccc(cc4Cl)C3O)c3ccc(O)c(c3)-c3c(O)cc(O)cc32)C(=O)NC)cc1 (stereo not drawn) [MCC_000503]	xxxxx (xxxxx = <0.01)	xxxxx (xxxxx = <0.01)	xx (xx = 1-4)
CCCCCCCCCOc1ccc(C(=O)NC(CCCCN)C(=O)NC(CCCCN)C(=O)NC(CCCCNC(=O)C2NC(=O)C3NC(=O)C(NC(=O)C4NC(=O)C(CC(N)=O)NC(=O)C(NC(=O)C(CC(C)C)NC)C(O)c5ccc(c(Cl)c5)Oc5cc4cc(c5OC4OC(CO)C(O)C(O)C4OC4CC(C)(N)C(O)C(C)O4)Oc4ccc(cc4Cl)C3O)c3ccc(O)c(c3)-c3c(O)cc(O)cc32)C(=O)NC)cc1 (stereo not drawn) [MCC_000504]	xxxxx (xxxxx = <0.01)	xxxxx (xxxxx = <0.01)	xxx (xxx = 0.1-<1)
